Results as given in EP3244885B1, “LIPOIC ACID FOR TREATING OR PREVENTING THREATENED MISCARRIAGE OR PRETERM DELIVERY” (priority 2015, dated 2016).

Columns and labels:
[1] = tested on: primigravid patients with subchorionic hematoma; assay: Randomized clinical trial, vaginal capsules of example 4 (10 mg ALA) vs. progesterone and untreated controls: reabsorption of subchorionic hematoma, pelvic pain, vaginal bleeding, abortions; format: in vivo, women; details: number of abortions per group (27 patients each); ALA p ≤ 0.05 vs progesterone and control groups
[2] = tested on: primigravid patients with threat of spontaneous abortion; format: in vivo, women; details: 60 patients per group, vaginal, ALA 10 mg/day or progesterone 400 mg daily, p ≤ 0.05; for Absence of symptoms: post treatment
Description: Randomized trial, vaginal capsules of example 4 vs. progesterone and placebo Number of participants: 120 (60 medical device, 60 progesterone)
In primigravid patients between the 7th and 12th week of gestation, the trial had the following objective: • evaluating whether the administration of 10mg ALA vaginally is associated with the reduction of the number of spontaneous abortions.
Reduction or disappearance of symptoms related to the risk of spontaneous abortion after therapy
(§1) • Absence of heartbeat • Presence of uterine abnormalities • Presence of fetal abnormalities • Presence of multiple pregnancies • Presence of pre-pregnancy or gestational abnormalities • Diagnosis of allergic reaction to progesterone • Presence of ongoing therapies with anticoagulants or antihypertensives • Presence of karyotypic abnormalities
The women enrolled to be treated with ALA or progesterone were randomized into 2 groups: • 60 were administered with vaginal capsules containing 10 mg ALA 1 per day until resolution of the clinical condition • 60 were administered with vaginal capsules containing 400 mg progesterone daily.
(§2) Three visits were scheduled: • 1) Enrolment • 2) 20 days after the first visit • 3) 60 days after the first visit

[3] = tested on: fragments of amniochorial membranes; details: pre-treatment with ALA; cited from earlier work
[4] = tested on: primigravid patients with subchorionic hematoma; assay: Randomized clinical trial, vaginal capsules of example 4 (10 mg ALA) vs. progesterone and untreated controls: reabsorption of subchorionic hematoma, pelvic pain, vaginal bleeding, abortions; format: in vivo, women; details: for Pel. pain, 2nd visit / Vaginal bleeding, 2nd visit: 20 days after the first visit; for Pel. pain, 2nd visit: ALA p ≤ 0.05 vs the other two groups; for Vaginal bleeding, 2nd visit: no significant differences between the three groups; for Pel. pain, visit upon enrolment / Vaginal bleeding, visit upon enrolment: share of patients with symptom at enrolment (baseline); for Improvement (%) mean ± st. error (resorption of the subchorionic hematoma): vaginal, ALA 10 mg/day or progesterone 400 mg daily, ALA p ≤ 0.05 vs progesterone and control groups
Description: Randomized trial, vaginal capsules of example 4 vs. progesterone and placebo Number of participants: […] (27 medical device, 27 progesterone, 22 placebo)
In primigravid patients between the 7th and 12th week of gestation, the trial had the following objective: • evaluating whether the administration of 10 mg ALA vaginally is associated with the reabsorption of the subchorionic hematoma.
Reduction or disappearance of: • pelvic pain • vaginal bleeding
• Women aged 20-40 • Primigravid between 7th e and 12th weeks of gestation • Presence of pelvic pain • With or without moderate vaginal bleeding • Presence of the subchorionic hematoma detected by ultrasound
as §1, with “• Absence of the fetus • Absence” for “• Absence”
The women enrolled to be treated with ALA or progesterone were randomized into 2 groups: • 27 were administered with vaginal capsules containing 10 mg ALA 1 per day until resolution of the clinical condition • 27 were administered with vaginal capsules containing 400 mg progesterone daily.
The women in the control group were those who refuse any medical treatment.
as §2
In each visit, a "blinded" operator carried out the ultrasound examination to evaluate the subchorionic hematoma and the subjective (pelvic pain) and objective (vaginal bleeding) symptoms were recorded.

SMILES	Spontaneous abortions [1]	Abortion [2]	Absence of symptoms [2]	release of MMP9 and cytokine-induced prostaglandin E2 [3]	weakening of membranes induced by TNF [3]	Pel. pain, 2nd visit [4]	Vaginal bleeding, 2nd visit [4]	Pel. pain, visit upon enrolment [4]	Vaginal bleeding, visit upon enrolment [4]	Improvement (%) mean ± st. error (resorption of the subchorionic hematoma) [4]
O=C(O)CCCCC1CCSS1 (stereo not drawn) [ALA, α-lipoic acid]	3	15%	85%	able to inhibit	able to inhibit	0%	0%	100%	54%	83.9 ± 3.9%
CC(=O)[C@H]1CC[C@H]2[C@@H]3CCC4=CC(=O)CC[C@]4(C)[C@H]3CC[C@]12C [Progesterone, reference compound]	6	25%	75%	–	–	14%	0%	100%	57%	49.7 ± 2.7%
